Experimental data from PubChem BioAssay (NCI).
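How tested: cells in 96-well plates exposed to compound for 48 hours at five concentrations. TGI marks complete inhibition of growth.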

Legend:
Assay in all cases: NCI tumour cell line growth inhibition, 48 h
[1] = test system: EKVX NSCLC
[2] = test system: SK-MEL-5 melanoma
[3] = test system: SF-295 CNS
[4] = test system: MCF7 breast
[5] = test system: DU-145 prostate
[6] = test system: SNB-75 CNS
[7] = test system: BT-549 breast
[8] = test system: MDA-N
[9] = test system: HCC-2998 colon
[10] = test system: K-562 leukemia
[11] = test system: CCRF-CEM leukemia
[12] = test system: OVCAR-3 ovarian
[13] = test system: LOX IMVI melanoma
[14] = test system: HCT-15 colon
[15] = test system: RPMI-8226 leukemia
[16] = test system: HL-60(TB) leukemia
[17] = test system: RXF 393 renal
[18] = test system: T-47D breast
[19] = test system: UO-31 renal
[20] = test system: MDA-MB-231 breast
[21] = test system: IGROV1 ovarian
[22] = test system: MDA-MB-435
[23] = test system: SW-620 colon
[24] = test system: UACC-62 melanoma
[25] = test system: NCI-H460 lung
[26] = test system: NCI-H226 lung
[27] = test system: U251 CNS
[28] = test system: KM12 colon
[29] = test system: NCI/ADR-RES ovarian
[30] = test system: SR leukemia
[31] = test system: HT29 colon
[32] = test system: SK-MEL-28 melanoma
[33] = test system: NCI-H23 lung
[34] = test system: OVCAR-4 ovarian
[35] = test system: SF-539 CNS
[36] = test system: SN12C renal
[37] = test system: HOP-62 NSCLC
[38] = test system: ACHN renal
[39] = test system: CAKI-1 renal
[40] = test system: SF-268 CNS
[41] = test system: A549 NSCLC
[42] = test system: HCT-116 colon
[43] = test system: OVCAR-5 ovarian
[44] = test system: SK-OV-3 ovarian
[45] = test system: A498 renal
[46] = test system: SNB-19 CNS
[47] = test system: UACC-257 melanoma
[48] = test system: OVCAR-8 ovarian
[49] = test system: 786-0 renal
[50] = test system: MALME-3M melanoma
[51] = test system: TK-10 renal

Measured: TGI

Oc1ccc(Br)cc1C=Nc1c(NC2CCCCC2)oc2ccc(Br)cc12
38.7 µM: [13]
27.1 µM: [17]
78.4 µM: [31]
20.2 µM: [11]
79.5 µM: [6]
68.6 µM: [12]
21.8 µM: [16]
28.7 µM: [42]
83.2 µM: [4]
29.2 µM: [10]
> 100 µM: [1] | [2] | [3] | [5] | [8] | [9] | [14] | [15] | [18] | [19] | [20] | [21] | [22] | [23] | [24] | [25] | [26] | [27] | [28] | [29] | [30] | [32] | [34] | [35] | [36] | [37] | [38] | [39] | [40] | [41] | [43] | [44] | [45] | [46] | [47] | [48] | [49] | [50] | [51]
90.9 µM: [7]
56 µM: [33]
